Measured values from US20230041743A1, “1,8-NAPHTHYRIDIN-2-ONE COMPOUNDS FOR THE TREATMENT OF AUTOIMMUNE DISEASE” (Hoffmann-La Roche Inc., priority 2019, published 2023).
pIC50: −log10 of the molar value.

Target: T1, hERG channel (Homo sapiens, UniProt Q12809)
T1 construct: expressed in transfected cells; host or cells: CHO (Chinese hamster ovary), CHOhERG
Test: hERG channel inhibition assay (patch-clamp, CHOhERG cells)
Assay type: cell-based
Conditions: whole-cell patch-clamp; for IC20: human, CHO cells stably expressing hERG (CHOhERG)
Method: hERG Channel Inhibition Assay
The hERG K^+ channels were cloned in humans and stably expressed in a CHO (Chinese hamster ovary) cell line. CHOhERG cells were used for patch-clamp (voltage-clamp, whole-cell) experiments. Cells were stimulated by a voltage pattern to activate hERG channels and conduct IKhERG Currents (rapid delayed outward rectifier potassium current of the hERG channel). After the cells were stabilized for a few minutes, the amplitude and kinetics of IKhERG were recorded at a stimulation frequency of 0.1 Hz (6 bpm). Thereafter, the test compound was added to the preparation at increasing concentrations. For each concentration, an attempt was made to reach a steady-state effect, usually, this was achieved within 3-10 min at which time the next highest concentration was applied. The amplitude and kinetics of IKhERG are recorded in each concentration of the drug which were compared to the control values (taken as 100%). (references: Redfern W S, Carlsson L, Davis A S, Lynch W G, MacKenzie I, Palethorpe S, Siegl P K, Strang I, Sullivan A T, Wallis R, Camm A J, Hammond T G. 2003; Relationships between preclinical cardiac electrophysiology, clinical QT interval prolongation and torsade de pointes for a broad range of drugs: evidence for a provisional safety margin in drug development. Cardiovasc. Res. 58:32-45, Sanguinetti M C, Tristani-Firouzi M. 2006; hERG potassium channels and cardiac arrhythmia. Nature 440:463-469, Webster R, Leishman D, Walker D. 2002; Towards a drug concentration effect relationship for QT prolongation and torsades de pointes. Curr. Opin. Drug Discov. Devel. 5:116-26).

T1 sequence (Q12809 whole entry): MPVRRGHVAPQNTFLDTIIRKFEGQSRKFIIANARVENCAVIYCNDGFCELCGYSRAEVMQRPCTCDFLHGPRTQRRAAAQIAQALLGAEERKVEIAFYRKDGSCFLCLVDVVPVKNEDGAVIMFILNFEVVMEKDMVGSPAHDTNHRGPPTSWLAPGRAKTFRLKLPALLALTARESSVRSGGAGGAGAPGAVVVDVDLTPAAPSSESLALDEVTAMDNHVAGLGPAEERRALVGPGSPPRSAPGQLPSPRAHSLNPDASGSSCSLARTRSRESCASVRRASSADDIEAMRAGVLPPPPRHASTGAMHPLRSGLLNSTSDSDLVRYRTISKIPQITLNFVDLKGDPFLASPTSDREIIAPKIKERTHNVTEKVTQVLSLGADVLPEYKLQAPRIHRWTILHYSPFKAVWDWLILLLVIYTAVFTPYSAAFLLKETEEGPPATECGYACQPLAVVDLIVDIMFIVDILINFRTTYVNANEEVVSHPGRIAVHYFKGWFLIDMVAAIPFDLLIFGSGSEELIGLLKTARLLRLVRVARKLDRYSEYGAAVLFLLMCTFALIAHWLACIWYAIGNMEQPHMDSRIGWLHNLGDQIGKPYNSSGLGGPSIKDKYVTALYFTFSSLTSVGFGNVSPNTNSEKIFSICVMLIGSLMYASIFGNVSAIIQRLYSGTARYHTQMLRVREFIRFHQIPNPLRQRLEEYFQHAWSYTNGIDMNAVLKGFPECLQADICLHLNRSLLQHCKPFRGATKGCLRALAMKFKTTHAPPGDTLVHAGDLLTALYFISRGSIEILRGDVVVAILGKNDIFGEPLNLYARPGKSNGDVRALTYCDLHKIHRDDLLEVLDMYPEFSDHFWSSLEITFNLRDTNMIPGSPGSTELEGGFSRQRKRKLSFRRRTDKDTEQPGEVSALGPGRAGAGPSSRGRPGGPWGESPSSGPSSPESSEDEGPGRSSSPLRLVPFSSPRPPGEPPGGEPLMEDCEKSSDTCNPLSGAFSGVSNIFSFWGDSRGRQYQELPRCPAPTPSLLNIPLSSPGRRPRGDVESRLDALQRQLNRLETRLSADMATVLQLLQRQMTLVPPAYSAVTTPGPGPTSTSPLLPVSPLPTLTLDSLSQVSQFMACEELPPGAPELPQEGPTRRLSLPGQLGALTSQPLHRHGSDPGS

SMILES	IC20 [µM]	pIC50
C[C@@H]1CN(c2cc(=O)n(C)c3ncccc23)C[C@@H]2c3ccc(N4C[C@@H]5C[C@H]4CN5)cc3CN12 [Example 19, 4-[(4R,10bS)-8-[(1S,4S)-2,5-diazabicyclo[2.2.1]heptan-2-yl]-4-methyl-3,4,6,10b-tetrahydro-1H-pyrazino[2,1-a]isoindol-2-yl]-1-methyl-1,8-naphthyridin-2-one]	> 10	< 4.70
C[C@@H]1CN(c2cc(=O)n(C)c3ncccc23)C[C@@H]2c3ccc(N4CCN[C@@H](C)C4)cc3CN12 [Example 13, 4-[(4R,10bS)-4-methyl-8-[(3S)-3-methylpiperazin-1-yl]-3,4,6,10b-tetrahydro-1H-pyrazino[2,1-a]isoindol-2-yl]-1-methyl-1,8-naphthyridin-2-one]	7.2	< 4.70
C[C@@H]1CN(c2cc(=O)n(C)c3ncccc23)C[C@@H]2c3ccc(C4CCNCC4)cc3CN12 [Example 24, 4-[(4R,10bS)-4-methyl-8-(4-piperidyl)-3,4,6,10b-tetrahydro-1H-pyrazino[2,1-a]isoindol-2-yl]-1-methyl-1,8-naphthyridin-2-one]	> 10	< 4.70
C[C@@H]1CN(c2cc(=O)n(C)c3ncccc23)C[C@@H]2c3ccc(N4CCOC[C@H](N)C4)cc3CN12 [Example 22, 4-[(4R,10bS)-8-[(6R)-6-amino-1,4-oxazepan-4-yl]-4-methyl-3,4,6,10b-tetrahydro-1H-pyrazino[2,1-a]isoindol-2-yl]-1-methyl-1,8-naphthyridin-2-one]	> 10	< 4.70
C[C@@H]1CN(c2cc(=O)n(C)c3ncccc23)C[C@@H]2c3ccc(N4CCC(C)(N)CC4)cc3CN12 [Example 18, 4-[(4R,10bS)-8-(4-amino-4-methyl-1-piperidyl)-4-methyl-3,4,6,10b-tetrahydro-1H-pyrazino[2,1-a]isoindol-2-yl]-1-methyl-1,8-naphthyridin-2-one]	> 10	< 4.70
C[C@@H]1CN(c2cc(=O)n(C)c3ncccc23)C[C@@H]2c3ccc(N4CC5(CN(C)C5)C4)cc3CN12 [Example 2, 4-[(4R,10bS)-4-methyl-8-(6-methyl-2,6-diazaspiro[3.3]heptan-2-yl)-3,4,6,10b-tetrahydro-1H-pyrazino[2,1-a]isoindol-2-yl]-1-methyl-1,8-naphthyridin-2-one]	> 10	< 4.70
C[C@@H]1CN(c2ccc3c(c2)CN2[C@H](C)CN(c4cc(=O)n(C)c5ncccc45)C[C@H]32)CCN1 [Example 14, 4-[(4R,10bS)-4-methyl-8-[(3R)-3-methylpiperazin-1-yl]-3,4,6,10b-tetrahydro-1H-pyrazino[2,1-a]isoindol-2-yl]-1-methyl-1,8-naphthyridin-2-one]	> 10	< 4.70
C[C@@H]1CN(c2cc(=O)n(C)c3ncccc23)C[C@@H]2c3ccc(N4CCC[C@](C)(N)C4)cc3CN12 [Example 15, 4-[(4R,10bS)-8-[(3S)-3-amino-3-methyl-1-piperidyl]-4-methyl-3,4,6,10b-tetrahydro-1H-pyrazino[2,1-a]isoindol-2-yl]-1-methyl-1,8-naphthyridin-2-one]	> 10	< 4.70
CO[C@@H]1CN(c2ccc3c(c2)CN2[C@H](C)CN(c4cc(=O)n(C)c5ncccc45)C[C@H]32)C[C@H]1N [Example 5, 4-[(4R,10bS)-8-[(3R,4R)-3-amino-4-methoxy-pyrrolidin-1-yl]-4-methyl-3,4,6,10b-tetrahydro-1H-pyrazino[2,1-a]isoindol-2-yl]-1-methyl-1,8-naphthyridin-2-one]	> 10	< 4.70
